Assay results taken from patent publication US7615361B2, “Toxicity screening methods” (Ceetox, Inc., priority 2006, dated 2009).
No end group written: not given here.

Legend:
[1] = test system: H4IIE tumor cells, NRK cells, rat primary hepatocytes; experiment: Anti-tumor screen in three rat cell types; assay type: cell-based
Text: In the Anti-tumor screen of the present invention, at least three different cell types are utilized: (1) tumor derived cells, (2) proliferating cells from normal tissue, and (3) non-proliferating cells from normal tissue. The evaluation of anti-tumor agents in multiple cell types provides information on mechanism-based toxicity versus efficacy.
The anti-tumor agent can be evaluated in a toxicity screen of key biochemical functions (as described in detail herein above), with emphasis placed on cell proliferation assays as well as biochemical function and cell viability. Comparisons can then be made to quantitative markers in the concentration response curves constructed with the toxicity data.
It is hypothesized to act through mitochondrial toxicity as well as apoptosis.

[2] = test system: rat cardiomyocytes; experiment: MTT reduction; assay type: cell-based
Protocol: (§1) One test compound (Compound A) was received as dry powder and evaluated for potential cytotoxicity in a battery of in vitro assays. The compound was tested using both rat cardiomyocytes (CM) from rat neonates and a rat hepatoma (H4IIE) cell line. […] The cell supernatant or the cells themselves were harvested for biochemical analysis. General cytotoxicity was evaluated by monitoring membrane integrity, mitochondrial function, cell proliferation, oxidative stress, and apoptosis. In addition, interaction with P-glycoprotein (PgP) on H4IIE cells and solubility of the test compound were also assessed. The means of each exposure group (n=3-7) were calculated for each assay performed.
(§2) Tetrazolium Dye Reduction: 3-[4,5-dimethylthiazol-2-yl]

[3] = test system: ANP; experiment: bDNA analysis of mRNA in rat cardiomyocytes; assay type: cell-based; settings: rat cardiomyocytes
Text: (§3) Hypertrophy of the heart ventricular myocytes is regulated by a complex series of intracellular signaling processes involving angiotensin receptors and a series of down stream gene expression changes (Li et al. 2006). Endothelin-1 (ET-1) induces hypertrophy of cardiomyocytes in vivo and in vitro. The mechanism of ET-1-induced hypertrophy consists in the activation of phospholipase C, protein kinase C, extra cellular signal regulated kinase (ERK) and upregulation of cfos and cjun.
(§4) Expression of ANP and BNP mRNA levels was determined by bDNA analysis of mRNA. ET-1 at 0.1 μM was included as a positive control.
(§5) […] Plates were mixed using a DPC 5 Micromix plate shaker at 37° C. for 15-30 minutes to ensure complete lysis of cells. Cell lysis was confirmed using a Nikon inverted microscope. Plates were stored at −80° C. until further analysis.
(§6) bDNA Analysis (Day 1): All solutions were prepared fresh on the day of analysis. Quantigene® bDNA kit components were brought to room temperature prior to use. Chemicals not supplied by Genospectra were obtained from Sigma-Aldrich.
(§7) On the day of analysis, Target Probe Sets were prepared for probe gene sets by adding 25 μL of each probe set component (CE, LE, BL) to 425 μL stock lysis solution using the following probe set concentrations: CE (50 fmol/μL), LE (200 fmol/μL), BL (100 fmol/μL).
(§8) Cell lysis plates were removed from freezer storage and thawed. […] Next, 10 μL of the appropriate Target Probe Set (PS2) was added to each appropriate well of the Capture Plate. Plates were tightly sealed using a plate sealer and incubated at 53° C. for 16-20 hr (overnight).
(§9) bDNA Analysis (Day 2): Wash buffer was prepared in ultra-pure water using 0.1×Saline-Sodium Citrate (SSC) and 0.03% Lithium Lauryl Sulfate (LLS). Amplifier working solution was prepared by adding 10 μL Amplifier to 10 mL Amplifier Diluent per plate.
(§10) Plates were removed from incubator and washed three times with 300 μL wash buffer. Wash buffer was completely removed from plates by aspiration and 100 μL Amplifier working solution was added to each well. Plates were sealed and incubated at 46° C. for 1 hr.
(§11) Label Probe working solution was prepared by adding 10 μL Label Probe to 10 mL Label Probe Diluent per plate. […] Plates were sealed and incubated at 46° C. for 1 hr.

[4] = Intracellular ATP levels; assay type: cell-based, rat; settings: rat
Protocol: as §1
(§12) Intracellular ATP Levels: Cellular Adenosine triphosphate (ATP) was determined with an assay based on a reaction between ATP+D-luciferin+oxygen catalyzed by luciferase to yield Oxyluciferin+AMP+PPi+CO2+light. The emitted light is proportional to the amount of ATP present. […] In addition, a unique cell lysis reagent inhibits endogenous ATPases and therefore stabilizes cellular ATP by preventing its degradation to ADP. ATP is present in all-living cells and declines rapidly upon cell death. In addition, this assay in combination with the MTT assay provides an indicator of mitochondrial activity and energy status of the cell.
(§13) Plates were analyzed immediately or stored at −20° C. until needed. On the day of analysis, the plates were thawed and calibration curve prepared with ATP in the same liquid matrix as samples. ATP was quantified by adding ATP substrate solution and then reading luminescence on a Packard Fusion Luminescence or equivalent plate reader.
(§14) Intracellular ATP Levels: ATP levels in treated cells could be determined by using the regression coefficients obtained from the linear regression analysis of the calibration curve. Thus, values could be expressed as pmoles ATP/million cells. Background corrected luminescence was used to determine percent change relative to controls by dividing treated values by control values and multiplying by 100.

[5] = test system: H4IIE cells; experiment: Predicted Ctox from Tox-Panel; assay type: cell-based, rat; settings: 24 HR, estimated sustained plasma concentration where toxicity would be expected in vivo
Protocol: Once all data for a given cluster of assays are received, the data are analyzed to obtain a detailed profile of the compound's toxicity. For example, most conveniently, the data are collated over a dose response range on a single graph. In such an embodiment, the measurement evaluated for each parameter (i.e., each indicator of cell health) at any given concentration is plotted as a percentage of a control measurement obtained in the absence of the compound. However, it should be noted that the data need not be plotted on a single graph, so long as all the parameters are analyzed collectively to yield detailed information of the effects of the concentration of the compound on the different parameters to yield an overall toxicity profile. As set forth below, this overall toxicity profile will facilitate a determination of a plasma concentration Ctox that is predicted to be toxic in vivo. Ctox represents an estimate of the sustained plasma concentration in vivo that would result in toxicity, such as hepatotoxicity or hematopoietic toxicity.
Studies such as these indicate that a preferred concentration for setting Ctox is the highest concentration at which there is no observed effect on any of the indicators being measured in the cluster analysis, especially a 24-hour cluster analysis. […] It will be apparent that 24 hour assays are more time-effective, and consequently, the 24 hour NOEL/Ctox represents a preferred data point to select as Ctox in a CATS assay. It will also be apparent that, with further time studies, it may be possible to select an equally suitable Ctox at other CATS assay time points (e.g., between 24 and 72 hours, or less than 24 hours).
In certain embodiments, the predicting comprises performing concentration response analyses of measurements from at least three separate assays that are employed in the cluster analysis. For example, in the cell health cluster, such predicting will involve monitoring the concentration response effect of the compound on a first health indicator which monitors cellular replication, a second cell health indicator which monitors mitochondrial function, and a third cell health indicator which monitors membrane integrity. Of course, it is understood that fourth, fifth, sixth or more cell health indicators also may be employed. From these concentration response analyses, the highest concentration of the chemical compound at which a measurable toxic effect of the chemical compound is not observable, i.e. NOEL, is determined and the Ctox is identified as the concentration that correlates to the NOEL. In choosing the concentrations of the compound for analysis, one of skill in the art should devise a dose response regimen which is selected to provide an indication of cell health at concentrations of at least two concentration values higher than the Ctox concentration.
The Ctox (H4IIE) value was developed using 24 hr in vitro toxicity data and was validated by retrospectively evaluating compounds across different classes of drugs in 14-day rat studies in which compounds were administered on a daily basis and pharmacokinetic data was available. […] Thus, Ctox values are only determined for the 24 hr in vitro results. The 6 hr toxicity analyses are typically not performed but are beneficial for interpretation of results when compound toxicity is high (e.g., Ctox≦20 μM).

[6] = Intracellular ATP levels; assay type: cell-based, rat; settings: rat, ATP TC50
Protocol: as §1
(§15) Experimental Protocol: The test compound was provided and stored at 4° C. until needed. Dosing solutions were prepared in complete culture medium. The rat hepatoma (H4IIE) cell line was used as the test system.
as §12, §13, §14

[7] = MTT reduction; assay type: cell-based, rat; settings: rat, MTT TC50
Protocol: as §1, §15, §2

[8] = MemTox membrane leakage (AK / α-GST); assay type: cell-based, rat; settings: rat, MemTox TC50
Protocol: as §1, §15
(§16) Membrane Leakage (α-Glutathione S-transferase and/or Adenylate Kinase): The presence of Adenylate Kinase (AK) or α-Glutathione S-transferase (α-GST), both enzyme leakage markers, was measured in the culture medium using an activity assay for Adenylate Kinase and/or an ELISA assay for α-GST. At the end of the exposure period, the medium covering the cells in each well was removed and placed into new 96-well plates with appropriate labeling. […] Luminescence (AK) values were measured with a Packard Fusion or equivalent plate reader, and absorbance (α-GST) values were measured with a Packard SpectraCount™ or equivalent reader at 450 nm and reference absorbance at 650 nm.
(§17) Membrane Leakage (α-Glutathione S-transferase and/or Adenylate Kinase): Leakage of Adenylate Kinase or α-GST from the cell into the culture medium was determined by collecting the culture medium at the end of the exposure period. Thus, the values measured represent total enzyme leakage lost over the exposure period. The control for 100% dead or maximum enzyme release was based on cells treated with 1 mM digitonin at the time of dosing. Percent dead cells relative to digitonin treated cells was determined and then subtracted from 100% to yield the percent live cells.

[9] = test system: P-glycoprotein (PgP); experiment: P-glycoprotein (PgP) binding: MTT with and without cyclosporin A; assay type: cell-based, rat; settings: H4IIE 24 HR; for % Control (Compound + CSA) / % Control (Compound): MTT, 50 μM; for % Control (Compound + CSA): with cyclosporin A; for % Control (Compound): without CSA; for % Difference: 1-20% low, 20-50% moderate, 50-100% high PgP interaction
Protocol: Several antiviral drugs are substrates for P-glycoprotein transporter (PgP).
P-glycoprotein (PgP) transport proteins are expressed in the bile canalicular membrane of normal liver. However, in neoplastic cells it is not uncommon to have expression of this transporter system in the plasma membrane. […] The existence of these transporters was evaluated with the Calcein-AM assay and with known substrates of PgP.

[10] = Intracellular total glutathione (GSH); assay type: cell-based, rat; settings: rat
Protocol: as §1

[11] = Intracellular total glutathione (GSH); assay type: cell-based, rat; settings: rat, Total GSH TC50
Protocol: as §1, §15

[12] = MTT reduction; assay type: cell-based, rat; settings: rat
Protocol: as §1, §2

[13] = MemTox membrane leakage (AK / α-GST); assay type: cell-based, rat; settings: rat
Protocol: as §1, §16, §17

[14] = Cell number (propidium iodide); assay type: cell-based, rat; settings: rat, Cell Number TC50
Protocol: as §1, §15
Cell Proliferation: Cell proliferation in each well was measured with propidium iodide (PI). This specific nucleic acid binding dye fluoresces when intercalated within the nucleic acids. The 15 nm shift enhances PI fluorescence approximately 20 times while the excitation maxima are shifted 30-40 nm. During method development experiments, it was determined that Triton-X-100 was the best solution to permeabilize the H4IIE cells thereby allowing the PI access to intracellular RNA and DNA. Fluorescence was measured using a Packard Fusion plate reader or equivalent reader at 540 nm excitation and 610 nm emission.
Cell Proliferation: After incubation, the test compound was removed and Triton X-100 solution containing propidium iodide is added. The plate was incubated and read on a fluorescent plate reader. Data was collected as relative fluorescent units (RFU). The blank was subtracted from the final well RFU. It represents the average of the first and last columns which contain no cells on that particular plate. The controls are untreated cells allowed to grow on the same plate. The compounds are represented by several separate RFU data points for each of the tested concentrations. The percent change relative to controls was calculated by dividing the average RFU by the control cell RFU and multiplying by 100.

[15] = test system: BNP; experiment: bDNA analysis of mRNA in rat cardiomyocytes; assay type: cell-based; settings: rat cardiomyocytes, 0.1 μM, after 3 hr
Text: as §3, §4, §5, §6, §7, §8, §9, §10, §11

[16] = test system: H4IIE cells; experiment: Membrane lipid peroxidation (8-isoprostane ELISA); assay type: cell-based, rat; settings: rat, 24 h
Protocol: (§18) One test compound (Compound A) was received as dry powder and evaluated for potential cytotoxicity in a battery of in vitro assays. The compound was tested using both rat cardiomyocytes (CM) from rat neonates and a rat hepatoma (H4IIE) cell line. […] Camptothecin and rotenone were included as positive control compounds. The cell supernatant or the cells themselves were harvested for biochemical analysis. General cytotoxicity was evaluated by monitoring membrane integrity, mitochondrial function, cell proliferation, oxidative stress, and apoptosis. In addition, interaction with P-glycoprotein (PgP) on H4IIE cells and solubility of the test compound were also assessed. The means of each exposure group (n=3-7) were calculated for each assay performed. Intra assay variation well-to-well was typically less than 10% with plate to plate variation typically less than 20%.
as §15

[17] = test system: rat cardiomyocytes; experiment: Membrane lipid peroxidation (8-isoprostane ELISA); assay type: cell-based; settings: rat, 24 h
Protocol: as §18

Compound: CN(Cc1cnc2nc(N)nc(N)c2n1)c1ccc(C(=O)N[C@@H](CCC(=O)O)C(=O)O)cc1 [Methotrexate]
- sensitivity of cell types in the anti-tumor screen [1]: the tumor cell line is most sensitive to mitochondrial damage

Compound: Cc1ccc(NC(=O)c2ccc(CN3CCN(C)CC3)cc2)cc1Nc1nccc(-c2cccnc2)n1 [Imatinib]
- potency in heart cells relative to H4IIE liver cells [2]: three to four-fold more potent

Compound: CS(=O)(=O)c1ccc(C2=C(c3ccccc3)C(=O)OC2)cc1 [Vioxx]
- induction of the hypertrophy marker ANP, Vioxx versus Celebrex ([3]; normalized with GAPDH): more effective at inducing the hypertrophy marker ANP

Compound: Cc1ccnc2c1NC(=O)c1cccnc1N2C1CC1 [NEVIRAPINE, nevirapine]
- CC50 at 24 h [4]: > 300 µM
- Predicted Ctox [5]: 100 µM
- CC50 at 24 h [6]: > 300 µM
- CC50 at 24 h [7]: > 300 µM
- CC50 at 24 h [8]: > 300 µM
- % Control (Compound + CSA) [9]: 90.2%
- % Control (Compound) [9]: 115.5%
- % Difference [9]: 21.9%
- CC50 at 24 h [10]: 251 µM
- CC50 at 24 h [11]: > 300 µM
- CC50 at 24 h [12]: > 300 µM
- CC50 at 24 h [13]: > 300 µM
- CC50 at 24 h [14]: > 300 µM

Compound: Endothelin-1 (CSCSSLMDKECVYFCHLDIIW; ends and bridges not checked; cysteine pairing not given here; UniProt P05305 53-73, looked up) [ET-1, positive control inducing cardiomyocyte hypertrophy]
- BNP expression increase [15]: approximately 4.5 fold
- ANP expression increase ([3]; 0.1 μM, after 3 hr): approximately 2 fold

Compound: CC(C)c1nc(CN(C)C(=O)N[C@H](C(=O)N[C@@H](Cc2ccccc2)C[C@H](O)[C@H](Cc2ccccc2)NC(=O)OCc2cncs2)C(C)C)cs1 [RITONAVIR, ritonavir]
- Predicted Ctox [5]: 52 µM
- Membrane Lipid Peroxidation [16]: 0
- % Control (Compound + CSA) [9]: 81.5%
- % Control (Compound) [9]: 100.6%
- % Difference [9]: 19.0%
- Membrane Lipid Peroxidation [17]: 0
